Measured values: US20240239804A1, “FUROINDAZOLE DERIVATIVES AS ANTAGONISTS OR INHIBITORS OF GPR84” (Bayer Aktiengesellschaft, priority 2021, published 2024)
Where a name gives a salt, the structure may show the parent alone.

Target: T1, human GPR84 receptor (Homo sapiens, UniProt Q9NQS5)
T1 construct: frozen aliquots prepared by acCELLerate; host or cells: CHO-K1
Experiment: cAMP HTRF assay for identification of cellular GPR84 antagonists
Type: cell-based
Settings: CHO-K1 cells stably expressing human GPR84; Forskolin plus agonist 6-OAU; cAMP HTRF readout; average or median values
From the text: cAMP HTRF® Assay for Identification of Cellular GPR84 Antagonists
By using a Homogenous Time-Resolved Fluorescence (HTRF®) based assay (#62AM5PEJ, Cisbio, Condolet, France) the inhibition of the Gi-coupled GPR84 receptor can be detected. CHO-K1 cells stably expressing human GPR84 receptor (purchased from DiscoveRx, now Eurofins) were used and treated with Forskolin (F6886, Sigma, Germany) to stimulate membrane adenylyl cyclases and thereby unspecific cAMP formation. Activation of the Gi-coupled GPR84 by a natural or small molecule agonist (e.g. 6-n-octyl aminouracile, inhouse) results in inhibition of cellular cAMP formation which can be released again by antagonists to this receptor. Detection and quantification of cellular cAMP levels in this HTRF assay is achieved by interaction between a fluorescent cAMP tracer (cAMP-d2) and an Eu-cryptate labelled anti-cAMP antibody. Following excitation at 337 nm this pairing allows for the generation of a fluorescence resonance energy transfer (FRET) between the partners and results in FRET induced emissions at 665 nm and 620 nm, the latter representing background signal by Eu-cryptate labelled anti-cAMP antibody. Maximal signal is obtained in the absence of any cellular cAMP (no competition for the binding of the tracer to the antibody). Given the combination of the Gi coupling properties of GPR84 and the competitive nature of the detection system agonist treatment should result in an increase in the HTRF signal due to lowered cAMP levels. Any signal decrease in the presence of Forskolin, agonist and compound are indicative of antagonist mediated abrogation of GPR84 signalling.
For the assay, frozen aliquots of CHO-K1 cells expressing hGPR84 (prepared by acCELLerate, Hamburg, Germany) were thawed and a cell suspension (1.67E+06 cells/mL) in assay media (Ham's F12 Nutrient Mix, Thermo Fisher Scientific, Waltham, USA; 5% fetal calf serum, Biomol, Hamburg, Germany) containing cAMP-d2 (dilution 1:20, supplied with the kit #62AM5PEJ, Cisbio, Condolet, France) was prepared. After recovery of cells for 20 minutes at 37° C., 3 μL/well cell suspension including cAMP-d2 were added to a pre-dispensed assay plate (Greiner Bio-One, Kremsmuenster, Austria) containing 50 nl/well test compound in 100% DMSO or 100% DMSO as control. This was followed by a 30 minute incubation step at room temperature. The stimulation time was started by addition of 2 μL/well assay media containing 2.5×EC80 agonist 6-OAU and 2.5×EC90 Forskolin (negative control: 2.5×EC90 Forskolin in assay media) and was continued for 30 minutes at room temperature. The reaction was stopped by addition of 3 μL/well lysis buffer containing cAMP Eu-Cryptate antibody (dilution 1:20) (both supplied with the kit #62AM5PEJ, Cisbio, Condolet, France). To enable complete lysis, plates were incubated for 60 minutes at room temperature before measurement in an HTRF reader, e.g. a PHERAstar (BMG Labtech, Ortenberg, Germany).
From the fluorescence emissions at 665 nm (FRET) and at 620 nm (background signal of Eu-cryptate) the ratio (emission at 665 nm divided by emission at 620 nm×10000) was calculated and the data were normalized (reaction without test compound, only 100% DMSO=0% inhibition; all other assay components except agonist=100% inhibition). For dose response testing on the same microtiter plate, compounds were tested at 11 different concentrations in the range of 20 μM to 0.07 nM (20 μM, 5.7 μM, 1.6 μM, 0.47 μM, 0.13 μM, 38 nM, 11 nM, 3.1 nM, 0.89 nM, 0.25 and 0.07 nM; dilution series prepared before the assay at the level of the 100-fold conc. stock solutions by serial 1:3.5 dilutions in 100% DMSO) in duplicate values for each concentration. IC50 values were calculated by 4-parameter fitting using a commercial software package (Genedata Screener, Basel, Switzerland).
Examples were tested in selected biological assays one or more times. […]

T1 sequence (Q9NQS5 whole entry): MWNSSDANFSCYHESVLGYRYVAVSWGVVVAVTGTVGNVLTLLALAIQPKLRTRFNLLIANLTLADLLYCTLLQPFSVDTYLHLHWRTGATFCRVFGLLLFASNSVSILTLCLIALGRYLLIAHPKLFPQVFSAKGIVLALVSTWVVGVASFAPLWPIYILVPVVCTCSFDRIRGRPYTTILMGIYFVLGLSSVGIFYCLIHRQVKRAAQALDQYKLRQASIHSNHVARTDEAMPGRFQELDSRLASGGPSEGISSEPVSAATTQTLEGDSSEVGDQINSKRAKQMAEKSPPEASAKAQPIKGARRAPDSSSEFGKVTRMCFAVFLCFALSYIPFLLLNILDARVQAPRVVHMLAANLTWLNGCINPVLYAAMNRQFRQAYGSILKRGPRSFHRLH

Going from `Cc1c(C(=O)NC[C@@H]2CCCO2)oc2c1-c1nn(C(C)c3ccccc3F)cc1CC2` (mixture of isomers) [Example 95, 2-[(1RS)-1-(2-fluorophenyl)ethyl]-8-methyl-N-[(2S)-tetrahydrofuran-2-ylmethyl]-4,5-dihydro-2H-furo[2,3-g]indazole-7-carboxamide] to `Cc1ccccc1Cn1cc2c(n1)-c1c(oc(C(=O)NC[C@@H]3CCCO3)c1C)CC2` [Example 4, 8-methyl-2-[(2-methylphenyl)methyl]-N-[(2S)-tetrahydrofuran-2-ylmethyl]-4,5-dihydro-2H-furo[2,3-g]indazole-7-carboxamide], the IC50 falls from 750 nM to 23 nM (33-fold).

First: Cc1ccccc1Cn1cc2c(n1)-c1c(oc(C(=O)NCC3CCCN3C(=O)OC(C)(C)C)c1C)CC2 (racemic) [Example 6, tert-butyl (2RS)-2-[{{8-methyl-2-[(2-methylphenyl)methyl]-4,5-dihydro-2H-furo[2,3-g]indazole-7-carbonyl}amino)methyl]pyrrolidine-1-carboxylate]
Second: Cc1ccccc1Cn1cc2c(n1)-c1c(oc(C(=O)NCC3CCCN3)c1C)CC2 (racemic) [Example 7, 8-methyl-2-[(2-methylphenyl)methyl]-N-{[(2RS)-pyrrolidin-2-yl]methyl}-4,5-dihydro-2H-furo[2,3-g]indazole-7-carboxamide]
The IC50 of the first is 3.3-fold higher: 2220 nM for the first, 680 nM for the second.

First: Cc1ccccc1Cn1cc2c(n1)-c1c(oc(C(=O)NCC3CCCN3)c1C)CC2 (racemic) [Example 7-3, 8-methyl-2-[(2-methylphenyl)methyl]-N-{[(2RS)-pyrrolidin-2-yl]methyl}-4,5-dihydro-2H-furo[2,3-g]indazole-7-carboxamide hydrochloride (1:1)]
Second: Cc1ccccc1Cn1cc2c(n1)-c1c(oc(C(=O)NC[C@@H]3COCCO3)c1C)CC2 [Example 5, N-{[(2R)-1,4-dioxan-2-yl]methyl}-8-methyl-2-[(2-methylphenyl)methyl]-4,5-dihydro-2H-furo[2,3-g]indazole-7-carboxamide]
The IC50 of the first is 130-fold higher: 1180 nM for the first, 9 nM for the second. The second is the more potent here.

Compared with `Cc1c(C(=O)NCC2CCCO2)oc2c1-c1nn(Cc3ccccc3Cl)cc1CC2` (racemic) [Example 9, 2-[(2-chlorophenyl)methyl]-8-methyl-N-[(2RS)-tetrahydrofuran-2-ylmethyl]-4,5-dihydro-2H-furo[2,3-g]indazole-7-carboxamide], `Cc1c(C(=O)NCC2CCCO2)oc2c1-c1nn(Cc3ccc(F)cc3Cl)cc1CC2` (racemic) [Example 92, 2-[(2-chloro-4-fluorophenyl)methyl]-8-methyl-N-[(2RS)-tetrahydrofuran-2-ylmethyl]-4,5-dihydro-2H-furo[2,3-g]indazole-7-carboxamide] is 3.5-fold higher in IC50: 46 nM for the first, 160 nM for the second. The first is the more potent here.

`Cc1c(C(=O)NCC2CCCO2)oc2c1-c1nn(Cc3cccc(Cl)c3)cc1CC2` (racemic) [Example 15, 2-[(3-chlorophenyl)methyl]-8-methyl-N-[(2RS)-tetrahydrofuran-2-ylmethyl]-4,5-dihydro-2H-furo[2,3-g]indazole-7-carboxamide] and `Cc1c(C(=O)NCC2CCCO2)oc2c1-c1nn(Cc3ccc(Cl)cc3)cc1CC2` (racemic) [Example 21, 2-[(4-chlorophenyl)methyl]-8-methyl-N-[(2RS)-tetrahydrofuran-2-ylmethyl]-4,5-dihydro-2H-furo[2,3-g]indazole-7-carboxamide] are within 1.5-fold of each other in IC50: 74 nM for the first, 58 nM for the second.

Compared with `Cc1ccccc1Cn1cc2c(n1)-c1c(oc(C(=O)NCC3CCCN3)c1C)CC2` (single isomer, unassigned) [Example 7-1], `Cc1ccccc1Cn1cc2c(n1)-c1c(oc(C(=O)NCc3ccon3)c1C)CC2` [Example 8, 8-methyl-2-[(2-methylphenyl)methyl]-N-[(1,2-oxazol-3-yl)methyl]-4,5-dihydro-2H-furo[2,3-g]indazole-7-carboxamide] is 3-fold lower in IC50: 720 nM for the first, 240 nM for the second.

First: Cc1ccccc1Cn1cc2c(n1)-c1c(oc(C(=O)NCC3CCCN3)c1C)CC2 (single isomer, unassigned) [Example 7-2]
Second: Cc1c(C(=O)NCCN2CCC2)oc2c1-c1nn(Cc3ccccc3Cl)cc1CC2 [Example 14, N-[2-(azetidin-1-yl)ethyl]-2-[(2-chlorophenyl)methyl]-8-methyl-4,5-dihydro-2H-furo[2,3-g]indazole-7-carboxamide]
The IC50 of the first is 1.8-fold lower: 630 nM for the first, 1150 nM for the second. The first is the more potent here.

Compared with `Cc1c(C(=O)NCC2CCCO2)oc2c1-c1nn(Cc3cccc(Cl)c3)cc1CC2` (single isomer, unassigned) [Example 15-1], `Cc1c(C(=O)NCC2CCCO2)oc2c1-c1nn(Cc3ccc(Cl)cc3)cc1CC2` (single isomer, unassigned) [Example 21-1] is 5.9-fold higher in IC50: 88 nM for the first, 520 nM for the second. The first is the more potent here.

First: Cc1c(C(=O)NCC2CCCO2)oc2c1-c1nn(Cc3cccc(Cl)c3)cc1CC2 (single isomer, unassigned) [Example 15-2]
Second: Cc1c(C(=O)NCC2CCCO2)oc2c1-c1nn(Cc3ccc(Cl)cc3)cc1CC2 (single isomer, unassigned) [Example 21-2]
The IC50 of the first is 6.2-fold higher: 550 nM for the first, 89 nM for the second. The second is the more potent here.

Going from `Cc1ccc(Cn2cc3c(n2)-c2c(oc(C(=O)NC[C@@H]4CCCO4)c2C)CC3)cc1` [Example 1, 8-methyl-2-[(4-methylphenyl)methyl]-N-[(2S)-tetrahydrofuran-2-ylmethyl]-4,5-dihydro-2H-furo[2,3-g]indazole-7-carboxamide] to `Cc1ccc(Cn2cc3c(n2)-c2c(oc(C(=O)NC[C@@H]4COCCO4)c2C)CC3)cc1` [Example 2, N-{[(2R)-1,4-dioxan-2-yl]methyl}-8-methyl-2-[(4-methylphenyl)methyl]-4,5-dihydro-2H-furo[2,3-g]indazole-7-carboxamide], the IC50 falls from 18 nM to 7 nM (2.6-fold). The second is the more potent here.

First: Cc1ccc(Cn2cc3c(n2)-c2c(oc(C(=O)NCc4ccon4)c2C)CC3)cc1 [Example 3, 8-methyl-2-[(4-methylphenyl)methyl]-N-[(1,2-oxazol-3-yl)methyl]-4,5-dihydro-2H-furo[2,3-g]indazole-7-carboxamide]
Second: Cc1ccc(CNC(=O)c2oc3c(c2C)-c2nn(Cc4ccccc4Cl)cc2CC3)cc1 [Example 10, 2-[(2-chlorophenyl)methyl]-8-methyl-N-[(4-methylphenyl)methyl]-4,5-dihydro-2H-furo[2,3-g]indazole-7-carboxamide]
The IC50 of the first is 3.3-fold higher: 140 nM for the first, 42 nM for the second. The second is the more potent here.

`Cc1c(C(=O)NCCN2CCN(C)CC2)oc2c1-c1nn(Cc3ccccc3Cl)cc1CC2` [Example 11, 2-[(2-chlorophenyl)methyl]-8-methyl-N-[2-(4-methylpiperazin-1-yl)ethyl]-4,5-dihydro-2H-furo[2,3-g]indazole-7-carboxamide] and `Cc1c(C(=O)NCCN2CCCC2)oc2c1-c1nn(Cc3ccccc3Cl)cc1CC2` [Example 12, 2-[(2-chlorophenyl)methyl]-8-methyl-N-[2-(pyrrolidin-1-yl)ethyl]-4,5-dihydro-2H-furo[2,3-g]indazole-7-carboxamide] are within 1.5-fold of each other in IC50: 230 nM for the first, 300 nM for the second.

`Cc1c(C(=O)NCCN2CCCCC2)oc2c1-c1nn(Cc3ccccc3Cl)cc1CC2` [Example 13, 2-[(2-chlorophenyl)methyl]-8-methyl-N-[2-(piperidin-1-yl)ethyl]-4,5-dihydro-2H-furo[2,3-g]indazole-7-carboxamide] and `Cc1c(C(=O)NCCN2CCN(C)CC2)oc2c1-c1nn(Cc3cccc(Cl)c3)cc1CC2` [Example 17, 2-[(3-chlorophenyl)methyl]-8-methyl-N-[2-(4-methylpiperazin-1-yl)ethyl]-4,5-dihydro-2H-furo[2,3-g]indazole-7-carboxamide] are within 1.5-fold of each other in IC50: 360 nM for the first, 320 nM for the second.
